US20250019387A1 (Frontier Medicines Corporation, priority 0001, published 2025)

What follows are compounds tested against KRAS G12C and cRAF (Ras-binding domain) interaction (Homo sapiens (Human), UniProt P01116, C118S/C51S/C80L/G12C) (assay: Inhibition of KRAS G12C and cRAF binding (AlphaScreen)). Conditions: GMPPNP-loaded KRAS G12C, 19-20 hours incubation with compound; read-out: IC50 (Inhibition of KRAS G12C and cRAF Binding).
Summary of the method: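 IC50 values come from 4-parameter nonlinear regression of AlphaScreen signal (680 nm excitation, 570 nm emission). Compound plates sat 19-20 h at room temperature before RBD and donor/acceptor beads were added in Hepes pH 7.4 buffer with 150 mM NaCl, 5 mM MgCl2, 2% DMSO for 60-90 min; biotin-AviTag-GST replaced RBD to flag assay-technology interferers.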

Chain of KRAS G12C and cRAF (Ras-binding domain) interaction (P01116 other isoform, or with tags, fused parts or gaps G12C/C51S/C80L/C118S): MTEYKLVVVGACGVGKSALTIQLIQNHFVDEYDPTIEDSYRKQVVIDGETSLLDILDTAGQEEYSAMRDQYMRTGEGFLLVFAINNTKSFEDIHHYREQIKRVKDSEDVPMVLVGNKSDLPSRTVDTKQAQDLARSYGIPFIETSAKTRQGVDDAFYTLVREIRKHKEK

| SMILES | IC50 [nM] |
| --- | --- |
| CN(c1nc(OC[C@@]23CCCN2C[C@H](F)C3)nc2c(F)c(-c3cccc4cccc(Cl)c34)ncc12)[C@@H]1CCN(C(=O)/C=C/c2nc(C3(C)COC3)no2)C1 [Example 95, (E)-1-((R)-3-((7-(8-chloronaphthalen-1-yl)-8-fluoro-2-(((2R,7aS)-2-fluorotetrahydro-1H-pyrrolizin-7a(5H)-yl)methoxy)pyrido[4,3-d]pyrimidin-4-yl)(methyl)amino)pyrrolidin-1-yl)-3-(3-(3-methyloxetan-3-yl)-1,2,4-oxadiazol-5-yl)prop-2-en-1-one] | < 10 |
| C=CC(=O)C1[C@H]2CCN(c3nc(OC[C@@H]4CCCN4C)nc4c3CCN(c3cccc5cccc(Cl)c35)C4)C[C@@H]12 (stereo in doubt) [Example 43] | 10 to 100 |
| C=CC(=O)N1CC(CN(C)c2nc(OC[C@@]34CCCN3C[C@H](F)C4)nc3c(F)c(-c4cc(O)cc5cccc(Cl)c45)ncc23)C1 [Example 97, 1-(3-(((7-(8-chloro-3-hydroxynaphthalen-1-yl)-8-fluoro-2-(((2R,7aS)-2-fluorotetrahydro-1H-pyrrolizin-7a(5H)-yl)methoxy)pyrido[4,3-d]pyrimidin-4-yl)(methyl)amino)methyl)azetidin-1-yl)prop-2-en-1-one] | < 10 |
| CN(C)C/C=C/S(=O)(=O)CCN(C)c1nc(OC[C@@H]2CCCN2C)nc2c1CCN(c1cccc3cccc(Cl)c13)C2 [Example 52, (S,E)-7-(8-chloronaphthalen-1-yl)-N-(2-((3-(dimethylamino)prop-1-en-1-yl)sulfonyl)ethyl)-N-methyl-2-((1-methylpyrrolidin-2-yl)methoxy)-5,6,7,8-tetrahydropyrido[3,4-d]pyrimidin-4-amine] | 10 to 100 |
| C=CC(=O)N1C[C@H](C)[C@@H](N(C)c2nc(OC[C@@]34CCCN3C[C@H](F)C4)nc3c(F)c(-c4cccc5cccc(Cl)c45)ncc23)C1 [Example 189, 1-((3R,4S)-3-((7-(8-chloronaphthalen-1-yl)-8-fluoro-2-(((2R,7aS)-2-fluorotetrahydro-1H-pyrrolizin-7a(5H)-yl)methoxy)pyrido[4,3-d]pyrimidin-4-yl)(methyl)amino)-4-methylpyrrolidin-1-yl)prop-2-en-1-one] | 100 to 500 |
| COCCN(C)C/C=C/C(=O)N1CC[C@@H](N(C)c2nc(OC[C@@]34CCCN3C[C@H](F)C4)nc3c(F)c(-c4cccc5cccc(Cl)c45)ncc23)C1 [Example 235, (E)-1-((R)-3-((7-(8-chloronaphthalen-1-yl)-8-fluoro-2-(((2R,7aS)-2-fluorohexahydro-1H-pyrrolizin-7a-yl)methoxy)pyrido[4,3-d]pyrimidin-4-yl)(methyl)amino)pyrrolidin-1-yl)-4-((2-methoxyethyl)(methyl)amino)but-2-en-1-one] | < 10 |
| C#Cc1c(F)ccc2cccc(-c3ncc4c(N(C)CC5CN(C(=O)/C=C/c6cc(C)nc(C)n6)C5)nc(OC[C@@]56CCCN5C[C@H](F)C6)nc4c3F)c12 [Example 280, (E)-3-(2,6-dimethylpyrimidin-4-yl)-1-(3-(((7-(8-ethynyl-7-fluoronaphthalen-1-yl)-8-fluoro-2-(((2R,7aS)-2-fluorotetrahydro-1H-pyrrolizin-7a(5H)-yl)methoxy)pyrido[4,3-d]pyrimidin-4-yl)(methyl)amino)methyl)azetidin-1-yl)prop-2-en-1-one] | 10 to 100 |
| CN(c1nc(OCC23CCCN2CCC3)nc2c(F)c(-c3cccc4cccc(Cl)c34)ncc12)[C@@H]1CCN(C(=O)/C=C/c2nc(C3COC3)no2)C1 [Example 155, (R,E)-1-(3-((7-(8-chloronaphthalen-1-yl)-8-fluoro-2-((tetrahydro-1H-pyrrolizin-7a(5H)-yl)methoxy)pyrido[4,3-d]pyrimidin-4-yl)(methyl)amino)pyrrolidin-1-yl)-3-(3-(oxetan-3-yl)-1,2,4-oxadiazol-5-yl)prop-2-en-1-one] | < 10 |
| Cc1ncc(F)c(/C=C/C(=O)N2CC[C@@H](N(C)c3nc(OC[C@@]45CCCN4C[C@H](F)C5)nc4c(F)c(-c5cccc6ccc(F)c(F)c56)ncc34)C2)n1 [Example 295, (E)-1-((R)-3-((7-(7,8-difluoronaphthalen-1-yl)-8-fluoro-2-(((2R,7aS)-2-fluorotetrahydro-1H-pyrrolizin-7a(5H)-yl)methoxy)pyrido[4,3-d]pyrimidin-4-yl)(methyl)amino)pyrrolidin-1-yl)-3-(5-fluoro-2-methylpyrimidin-4-yl)prop-2-en-1-one] | 10 to 100 |
| CN(c1nc(OC[C@@]23CCCN2C[C@H](F)C3)nc2c(F)c(-c3cccc4cccc(Cl)c34)ncc12)[C@@H]1CCN(C(=O)/C=C/c2nc(C3CCC3)no2)C1 [Example 111, (E)-1-((R)-3-((7-(8-chloronaphthalen-1-yl)-8-fluoro-2-(((2R,7aS)-2-fluorohexahydro-1H-pyrrolizin-7a-yl)methoxy)pyrido[4,3-d]pyrimidin-4-yl)(methyl)amino)pyrrolidin-1-yl)-3-(3-cyclobutyl-1,2,4-oxadiazol-5-yl)prop-2-en-1-one] | 10 to 100 |
| CN(c1nc(OC[C@@]23CCCN2C[C@H](F)C3)nc2c(F)c(-c3cccc4cccc(Cl)c34)ncc12)[C@@H]1CCN(C(=O)/C=C/c2cn(C)cn2)C1 [Example 135, (E)-1-((R)-3-((7-(8-chloronaphthalen-1-yl)-8-fluoro-2-(((2R,7aS)-2-fluorohexahydro-1H-pyrrolizin-7a-yl)methoxy)pyrido[4,3-d]pyrimidin-4-yl)(methyl)amino)pyrrolidin-1-yl)-3-(1-methyl-1H-imidazol-4-yl)prop-2-en-1-one] | 100 to 500 |
| C#Cc1c(F)ccc2cccc(-c3ncc4c(N(C)[C@@H]5CCN(C(=O)/C=C/CN6CC[C@@H](OC)C6)C5)nc(OC[C@@]56CCCN5C[C@H](F)C6)nc4c3F)c12 [Example 287, (E)-1-((R)-3-((7-(8-ethynyl-7-fluoronaphthalen-1-yl)-8-fluoro-2-(((2R,7aS)-2-fluorotetrahydro-1H-pyrrolizin-7a(5H)-yl)methoxy)pyrido[4,3-d]pyrimidin-4-yl)(methyl)amino)pyrrolidin-1-yl)-4-((R)-3-methoxypyrrolidin-1-yl)but-2-en-1-one] | 10 to 100 |
| C=CC(=O)N1C[C@H](N(C)c2nc(OCC34CCCN3CCC4)nc3c(F)c(-c4cccc5cccc(Cl)c45)ncc23)C[C@H]1CC#N [Example 119, 2-((2S,4R)-1-acryloyl-4-((7-(8-chloronaphthalen-1-yl)-8-fluoro-2-((tetrahydro-1H-pyrrolizin-7a(5H)-yl)methoxy)pyrido[4,3-d]pyrimidin-4-yl)(methyl)amino)pyrrolidin-2-yl)acetonitrile] | 100 to 500 |
| C#Cc1c(F)ccc2cccc(-c3ncc4c(N(C)[C@@H]5CCN(C(=O)/C=C/CN(C)C)C5)nc(OC[C@@]56CCCN5C[C@H](F)C6)nc4c3F)c12 [Example 201, (E)-4-(dimethylamino)-1-((R)-3-((7-(8-ethynyl-7-fluoronaphthalen-1-yl)-8-fluoro-2-(((2R,7aS)-2-fluorohexahydro-1H-pyrrolizin-7a-yl)methoxy)pyrido[4,3-d]pyrimidin-4-yl)(methyl)amino)pyrrolidin-1-yl)but-2-en-1-one] | < 10 |
| C#Cc1c(F)ccc2cccc(-c3ncc4c(N(C)[C@@H]5CCN(C(=O)/C=C/c6nc(C)ncc6F)C5)nc(OC[C@@]56CCCN5C[C@H](F)C6)nc4c3F)c12 [Example 301, (E)-1-((R)-3-((7-(8-ethynyl-7-fluoronaphthalen-1-yl)-8-fluoro-2-(((2R,7aS)-2-fluorohexahydro-1H-pyrrolizin-7a-yl)methoxy)pyrido[4,3-d]pyrimidin-4-yl)(methyl)amino)pyrrolidin-1-yl)-3-(5-fluoro-2-methylpyrimidin-4-yl)prop-2-en-1-one] | 10 to 100 |

Same assay, conditions: additional exemplary compounds; KRAS G12C and cRAF binding; read-out: RAF1 RBD IC50

| SMILES | IC50 [nM] |
| --- | --- |
| CN(C)C/C=C/S(=O)(=O)CCN(C)c1nc(OCC23CCCN2CCC3)nc2c1CCN(c1cccc3cccc(Cl)c13)C2 | < 10 |
| C=CC(=O)N1CC[C@@H](N(C)c2nc(OC[C@@]34CCCN3C[C@@H](F)C4)nc3c2CCN(c2cccc4cccc(Cl)c24)C3)C1 | > 500 |
| C=CC(=O)N1CCC[C@@H](N(C)c2nc(OC[C@@]34CCCN3C[C@H](F)C4)nc3c(F)c(-c4cccc5cccc(Cl)c45)ncc23)C1 | > 500 |
| CN(CCS(=O)(=O)/C=C/CN1CCC(F)(F)C1)c1nc(OC[C@@H]2CCCN2C)nc2c(F)c(-c3cccc4cccc(Cl)c34)ncc12 | > 500 |
| C=CS(=O)(=O)[C@H]1C[C@H](N(C)c2nc(OCC34CCCN3CCC4)nc3c2CCN(c2cccc4cccc(Cl)c24)C3)C1 | 100 to 500 |
| CC(C)C/C=C/S(=O)(=O)CCN(C)c1nc(OCC23CCCN2CCC3)nc2c1CCN(c1cccc3cccc(Cl)c13)C2 | > 500 |
| CN(c1nc(OCC23CCCN2CCC3)nc2c1CCN(c1cccc3ccc(F)c(Cl)c13)C2)[C@@H]1CCN(C#N)C1 | 10 to 100 |
| C=CC(=O)N1C[C@@H]2C[C@H]1CN2c1nc(OCC23CCCN2CCC3)nc2c1CCN(c1cccc3cccc(Cl)c13)C2 | > 500 |
| C=CC(=O)N1CCC[C@@H](N(C)c2nc(OC[C@@]34CCCN3C[C@H](F)C4)nc3c2CCN(c2cccc4cccc(Cl)c24)C3)C1 | > 500 |
| C=CC(=O)N1C[C@@H](C)[C@@H](N(C)c2nc(OC[C@@]34CCCN3C[C@H](F)C4)nc3c(F)c(-c4cccc5cccc(Cl)c45)ncc23)C1 | > 500 |
| C=CC(=O)N1C[C@H](Nc2nc(OC[C@@]34CCCN3C[C@H](F)C4)nc3c(F)c(-c4cccc5cccc(Cl)c45)ncc23)[C@@H](C)C1 | > 500 |
| C=CC(=O)N1CCC(CN(C)c2nc(OC[C@@]34CCCN3C[C@H](F)C4)nc3c(F)c(-c4cccc5cccc(Cl)c45)ncc23)C1 (stereo partly shown) | > 500 |
| Cc1nccc(/C=C/C(=O)N2C[C@H]3C[C@@H]2CN3c2nc(OC[C@@]34CCCN3C[C@H](F)C4)nc3c(F)c(-c4cccc5cccc(Cl)c45)ncc23)n1 | > 500 |
